In the test the target is GLP1R (Homo sapiens, UniProt P43220). Briefly: GLP1R cAMP HTRF assay, HEK293/GLP-1R/CRE/Luc (HEK293T cells). It is filed as cell-based. The following applies: read-out: EC50. Put shortly: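 cAMP accumulation via HTRF after 30 min, 37 °C exposure of 1000 receptor-expressing cells/well to compound (0.5% DMSO final) in IBMX (500 μM)/0.1% BSA DPBS.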
(TR-FRET usually uses a lanthanide donor and a delayed reading to cut background.)

The structures appear in SMILES notation.

Chain of GLP1R (P43220 24-463): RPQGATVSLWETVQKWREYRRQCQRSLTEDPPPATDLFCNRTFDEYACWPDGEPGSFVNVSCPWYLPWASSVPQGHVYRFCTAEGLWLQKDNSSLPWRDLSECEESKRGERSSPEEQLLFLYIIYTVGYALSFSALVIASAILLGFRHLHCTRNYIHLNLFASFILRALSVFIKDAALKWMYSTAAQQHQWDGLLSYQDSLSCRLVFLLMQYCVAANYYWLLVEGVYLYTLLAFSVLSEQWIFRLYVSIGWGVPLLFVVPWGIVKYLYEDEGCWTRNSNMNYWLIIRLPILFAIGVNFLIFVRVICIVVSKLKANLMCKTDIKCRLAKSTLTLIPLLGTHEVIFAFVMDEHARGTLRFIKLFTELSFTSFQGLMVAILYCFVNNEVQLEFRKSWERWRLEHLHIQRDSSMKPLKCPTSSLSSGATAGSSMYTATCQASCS

Consider `N#Cc1ccc(COc2cccc(C3=CCN(Cc4nc5ccc(C(=O)O)nc5n4C[C@@H]4CCO4)CC3)n2)c(F)c1` [Compound 225, (S)-2-((6-((4-cyano-2-fluorobenzyl)oxy)-3′,6′-dihydro-[2,4′-bipyridin]-1′(2′H)-yl)methyl)-3-(oxetan-2-ylmethyl)-3H-imidazo[4,5-b]pyridine-5-carboxylic add], for which the EC50 – broadly, the concentration needed to bring the measured effect to its halfway point – was at most 15 nM.

`O=C(O)c1ccc2nc(CN3CC=C(c4cncc(OCc5ccc(Cl)cc5F)n4)CC3)n(C[C@@H]3CCO3)c2c1` [Compound 34, (S)-2-((4-(6-(4-chloro-2-fluorobenzyloxy)pyrazin-2-yl)-5,6-dihydropyridin-1(2H)-yl)methyl)-1-(oxetan-2-ylmethyl)-1 h-benzo[d]imidazole-6-carboxylic acid]: the EC50 is at most 15 nM.

`O=C(O)c1ccc2nc(CN3CC=C(c4cccc(OCc5ccc(-n6ccnc6)cc5)n4)CC3)n(C[C@@H]3CCO3)c2n1` [Compound 245, (S)-2-((4-(6-(4-(1H-imidazol-1-yl)benzyloxy)pyridin-2-yl)-5,6-dihydropyridin-1(2H)-yl)methyl)-3-(oxetan-2-ylmethyl)-3H-imidazo[4,5-b]pyridine-5-carboxylic add]: the concentration giving a half-maximal response (EC50) is at most 15 nM.

In the case of `O=C(O)c1ccc2nc(CN3CC=C(c4cccc(OCc5ccc(Cl)cc5F)c4)CC3)n(C[C@@H]3CCO3)c2c1F` [Compound 237, (S)-2-((4-(3-((4-chloro-2-fluorobenzyl)oxy)phenyl)-3,6-dihydropyridin-1(2H)-yl)methyl)-7-fluoro-1-(oxetan-2-ylmethyl)-1H-benzo[d]imidazole-6-carboxylic acid], the EC50 was at most 15 nM.

Consider `O=C(O)c1ccc2nc(CN3CC=C(c4cccc(OCc5ccc(Cl)cc5F)c4)CC3)n(C[C@@H]3CCO3)c2n1` [Compound 224, (S)-2-((4-(3-((4-chloro-2-fluorobenzyl)oxy)phenyl)-3,6-dihydropyridin-1(2H)-yl)methyl)-3-(oxetan-2-ylmethyl)-3H-imidazo[4,5-b]pyridine-5-carboxylic acid], for which the EC50 was at most 15 nM.

As for `O=C(O)c1ccc2nc(CN3CC=C(c4cccc(OCc5ccc(-c6cccnc6)cc5)n4)CC3)n(C[C@@H]3CCO3)c2c1` [Compound 242, (S)-1-(oxetan-2-ylmethyl)-2-((6-((4-(pyridin-3-yl)benzyl)oxy)-3′,6′-dihydro-[2,4′-bipyridin]-1′(2′H)-yl)methyl)-1H-benzo[d]imidazole-6-carboxylic add], the EC50 was at most 15 nM.

Consider `O=C(O)c1ccc2nc(CN3CCC(c4cncc(OCc5ccc(Cl)cc5F)n4)CC3)n(C[C@@H]3CCO3)c2c1` [Compound 21, (S)-2-((4-(6-(4-chloro-2-fluorobenzyloxy)pyrazin-2-yl)piperidin-1-yl)methyl)-1-(oxetan-2-ylmethyl)-1 h-benzo[d]imidazole-6-carboxylic acid], for which the EC50 is at most 15 nM.

On to `O=C(O)c1ccc2nc(CN3CC=C(c4ccc(F)c(OCc5ccc(Cl)cc5F)c4)CC3)n(C[C@@H]3CCO3)c2c1F` [Compound 238, (S)-2-((4-(3-((4-chloro-2-fluorobenzyl)oxy)-4-fluorophenyl)-3,6-dihydropyridin-1(2H)-yl)methyl)-7-fluoro-1-(oxetan-2-ylmethyl)-1H-benzo[d]imidazole-6-carboxylic acid], for which the EC50 was at most 15 nM.

Regarding `O=C(O)c1ccc2nc(CN3CC=C(c4cccc(OCc5ccc(Cl)cc5F)n4)CC3)n(C[C@@H]3CCO3)c2c1` [Compound 221, (S)-2-((6-((4-chloro-2-fluorobenzyl)oxy)-3′,6′-dihydro-[2,4′-bipyridin]-1′(2′H)-yl)methyl)-1-(oxetan-2-ylmethyl)-1H-benzo[d]imidazole-6-carboxylic acid], the EC50 was at most 15 nM.

In the case of `O=C(O)c1ccc2nc(CN3CC=C(c4ccc(F)c(OCc5ccc(Cl)cc5F)c4)CC3)n(C[C@@H]3CCO3)c2c1` [Compound 29, (S)-2-((4-(3-((4-chloro-2-fluorobenzyl)oxy)-4-fluorophenyl)-3,6-dihydropyridin-1(2H)-yl)methyl)-1-(oxetan-2-ylmethyl)-1 h-benzo[d]imidazole-6-carboxylic acid], the EC50 is at most 15 nM.

Regarding `N#Cc1ccc(COc2cncc(C3=CCN(Cc4nc5ccc(C(=O)O)cc5n4C[C@@H]4CCO4)CC3)n2)c(F)c1` [Compound 23, (S)-2-((4-(6-(4-cyano-2-fluorobenzyloxy)pyrazin-2-yl)-5,6-dihydropyridin-1(2H)-yl)methyl)-1-(oxetan-2-ylmethyl)-1 h-benzo[d]imidazole-6-carboxylic acid], the EC50 is at most 15 nM.

For the molecule `N#Cc1ccc(COc2cccc(C3=CCN(Cc4nc5ccc(C(=O)O)cc5n4C[C@@H]4CCO4)CC3)n2)c(F)c1` [Compound 19, (S)-2-((4-(6-(4-cyano-2-fluorobenzyloxy)pyridin-2-yl)-5,6-dihydropyridin-1(2H)-yl)methyl)-1-(oxetan-2-ylmethyl)-1 h-benzo[d]imidazole-6-carboxylic add], the EC50 is at most 15 nM.

With `O=C(O)c1ccc2nc(CN3CC=C(c4cccc(OCc5ccc(Cl)cc5F)c4)CC3)n(C[C@@H]3CCO3)c2c1` [Compound 28, (S)-2-((4-(3-((4-chloro-2-fluorobenzyl)oxy)phenyl)-3,6-dihydropyridin-1(2H)-yl)methyl)-1-(oxetan-2-ylmethyl)-1 h-benzo[d]imidazole-6-carboxylic add], the EC50 was at most 15 nM.

Consider `N#Cc1ccc(COc2cncc(C3CCN(Cc4nc5ccc(C(=O)O)cc5n4C[C@@H]4CCO4)CC3)n2)c(F)c1` [Compound 22, (S)-2-((4-(6-(4-cyano-2-fluorobenzyloxy)pyrazin-2-yl)piperidin-1-yl)methyl)-1-(oxetan-2-ylmethyl)-1 h-benzo[d]imidazole-6-carboxylic acid], for which the 50% effective concentration (EC50) is at most 150 nM.

With `O=C(O)c1ccc2nc(CN3CC=C(c4ccnc(OCc5ccc(Cl)cc5F)n4)CC3)n(C[C@@H]3CCO3)c2c1` [Compound 35, (S)-2-((4-(2-((4-chloro-2-fluorobenzyl)oxy)pyrimidin-4-yl)-3,6-dihydropyridin-1(2H)-yl)methyl)-1-(oxetan-2-ylmethyl)-1H-benzo[d]imidazole-6-carboxylic add], the EC50 is at most 15 nM.

For `O=C(O)c1ccc2nc(CN3CC=C(c4ccc(F)c(OCc5ccc(Cl)cc5F)c4)CC3)n(C[C@@H]3CCO3)c2n1` [Compound 236, (S)-2-((4-(3-((4-chloro-2-fluorobenzyl)oxy)-4-fluorophenyl)-5,6-dihydropyridin-1(2H)-yl)methyl)-3-(oxetan-2-ylmethyl)-3H-imidazo[4,5-b]pyridine-5-carboxylic acid], the concentration for a half-maximal effect (EC50) was at most 15 nM.

Take `O=C(O)c1ccc2nc(CN3CCC(c4cccc(OCc5ccc(Cl)cc5F)c4)CC3)n(C[C@@H]3CCO3)c2c1` [Compound 239, (S)-2-((4-(3-((4-chloro-2-fluorobenzyl)oxy)phenyl)piperidin-1-yl)methyl)-1-(oxetan-2-ylmethyl)-1H-benzo[d]imidazole-6-carboxylic acid]: the 50% effective concentration (EC50) is at most 15 nM.

Consider `N#Cc1ccc(COc2nc(C3=CCN(Cc4nc5ccc(C(=O)O)cc5n4C[C@@H]4CCO4)CC3)ccc2F)c(F)c1` [Compound 222, (S)-2-((6-((4-cyano-2-fluorobenzyl)oxy)-5-fluoro-3′,6′-dihydro-[2,4′-bipyridin]-1′(2′H)-yl)methyl)-1-(oxetan-2-ylmethyl)-1H-benzo[d]imidazole-6-carboxylic acid], for which the EC50 is at most 15 nM.

For the molecule `O=C(O)c1ccc2nc(CN3CCC(c4ccnc(OCc5ccc(Cl)cc5F)n4)CC3)n(C[C@@H]3CCO3)c2c1` [Compound 18, (S)-2-((4-(2-((4-chloro-2-fluorobenzyl)oxy)pyrimidin-4-yl)piperidin-1-yl)methyl)-1-(oxetan-2-ylmethyl)-1H-benzo[d]imidazole-6-carboxylic acid], the concentration giving a half-maximal response (EC50) was at most 15 nM.
